Results published in US20250360235A1, “RADI[…] AND METHOD FOR RADIOLABELLING” (Telix Innovations SA, priority 2024, published 2025).

Experiment: Radiochemical purity by HPLC over time after radiolabelling
Format: physicochemical
Experimental: Table 1 to Table 5 show the results of various radiolabelling experiments on radiochemical purity and the chelation yield. The radiolabelling experiments in the tables are carried out as described in: • Example 1 for when the gallium-68 source is GE Liquid target generator and EZAG GalliaPharm generator; • Example 2 for when the gallium-68 source is IRE Galli Eo generator; • Example 3 for when the gallium-68 source is GE solid target generator;
However, the experiments were carried out with the amount of ascorbic acid as indicated in the Tables 1 to 5, and the activity as indicated in the Tables 1 to 5. Radiochemical purities were measured at various times (T0, T1, T4, T6) after the radiolabelled experiments have been conducted.
The kits of Example 1, Example 2 or Example 3, with amounts of ascorbic acid as set out in Table 7 were used in the experiments for the ascorbic acid bracketing matrix. Three strengths of [^68Ga]Ga-PSMA-11 will be tested, i.e. 50 mCi/ml, 7 mCi/ml and 1 mCi/ml. Radiochemical purity was determined at different time points (TO, T1, T4 or T6), as set out in Table 7.

For `O=C([O-])CN(CCN(CC(=O)[O-])Cc1cc(CCC(=O)NCCCCCC(=O)NCCCC[C@H](NC(=O)N[C@@H](CCC(=O)O)C(=O)O)C(=O)O)ccc1[O-])Cc1cc(CCC(=O)O)ccc1[O-].[68Ga+3].[OH3+]` [[^68Ga]PSMA-11, gallium-68 radiolabelled Glu-urea-Lys-HBED-CC (gozetotide or PSMA-11)], which “Radiochemical Purity (HPLC) Ga-68 PSMA-11 (%)” value (from here on “Radiochemical Purity … (%)”) (1 mg ascorbic acid, 58.7-71.1 mCi, 7.47-8.99 mCi/mL, GE Liquid target, average of 3, T0) is on record?
Its value is 100%.

And the “Radiochemical Purity … (%)” value (1 mg ascorbic acid, 58.7-71.1 mCi, 7.47-8.99 mCi/mL, GE Liquid target, average of 3, T4 (4 h))?
Its value is 100%.

What about the “Radiochemical Purity … (%)” value (1 mg ascorbic acid, 58.7-71.1 mCi, 7.47-8.99 mCi/mL, GE Liquid target, n=3, T0) of the same molecule?
The value was “C (C = conforms to specifications)”.

What about the “Radiochemical Purity … (%)” value (1 mg ascorbic acid, 58.7-71.1 mCi, 7.47-8.99 mCi/mL, GE Liquid target, n=3, T4 (4 h)) of the same molecule?
The value was “C (C = conforms to specifications)”.

What about the “Radiochemical Purity … (%)” value (2.5 mg ascorbic acid, 49.9-76.9 mCi, 6.31-9.72 mCi/mL, GE Liquid target, average of 3, T0) of the same molecule?
The value was 100%.

And the “Radiochemical Purity … (%)” value (2.5 mg ascorbic acid, 49.9-76.9 mCi, 6.31-9.72 mCi/mL, GE Liquid target, average of 3, T4 (4 h))?
The value was 100%.

What about the “Radiochemical Purity … (%)” value (2.5 mg ascorbic acid, 49.9-76.9 mCi, 6.31-9.72 mCi/mL, GE Liquid target, n=3, T0) of the same molecule?
Its value is “C (C = conforms to specifications)”.

And the “Radiochemical Purity … (%)” value (2.5 mg ascorbic acid, 49.9-76.9 mCi, 6.31-9.72 mCi/mL, GE Liquid target, n=3, T4 (4 h))?
Its value is “C (C = conforms to specifications)”.

And the “Radiochemical Purity … (%)” value (5 mg ascorbic acid, 60-69.9 mCi, 7.61-8.81 mCi/mL, 3 × GE Liquid Target, 3 × EZAG GalliaPharm, average of 6, T0)?
The value was 100%.

And the “Radiochemical Purity … (%)” value (5 mg ascorbic acid, 60-69.9 mCi, 7.61-8.81 mCi/mL, 3 × GE Liquid Target, 3 × EZAG GalliaPharm, average of 6, T4 (4 h))?
The value was 100%.

What about the “Radiochemical Purity … (%)” value (5 mg ascorbic acid, 60-69.9 mCi, 7.61-8.81 mCi/mL, 3 × GE Liquid Target, 3 × EZAG GalliaPharm, n=6, T0) of the same molecule?
The value was “C (C = conforms to specifications)”.

And the “Radiochemical Purity … (%)” value (5 mg ascorbic acid, 60-69.9 mCi, 7.61-8.81 mCi/mL, 3 × GE Liquid Target, 3 × EZAG GalliaPharm, n=6, T4 (4 h))?
The value was “C (C = conforms to specifications)”.

And the “Radiochemical Purity … (%)” value (10 mg ascorbic acid, 514-520 mCi, 49.0-66.1 mCi/mL, GE Solid Target, average of 3, T0)?
The value was 100%.

What about the “Radiochemical Purity … (%)” value (10 mg ascorbic acid, 514-520 mCi, 49.0-66.1 mCi/mL, GE Solid Target, average of 3, T6 (6 h)) of the same molecule?
Its value is 100%.

And the “Radiochemical Purity … (%)” value (10 mg ascorbic acid, 514-520 mCi, 49.0-66.1 mCi/mL, GE Solid Target, n=3, T0)?
The value was “C (C = conforms to specifications)”.

What about the “Radiochemical Purity … (%)” value (10 mg ascorbic acid, 514-520 mCi, 49.0-66.1 mCi/mL, GE Solid Target, n=3, T6 (6 h)) of the same molecule?
The value was “C (C = conforms to specifications)”.

And the “Radiochemical Purity … (%)” value (15 mg ascorbic acid, 10.0-18.4 mCi, 0.95-1.77 mCi/mL, 1 × EZAG GalliaPharm, 2 × IRE Galli Eo, average of 3, T0)?
The value was 100%.

What about the “Radiochemical Purity … (%)” value (15 mg ascorbic acid, 10.0-18.4 mCi, 0.95-1.77 mCi/mL, 1 × EZAG GalliaPharm, 2 × IRE Galli Eo, average of 3, T1 (1 h)) of the same molecule?
Its value is 100%.

What about the “Radiochemical Purity … (%)” value (15 mg ascorbic acid, 10.0-18.4 mCi, 0.95-1.77 mCi/mL, 1 × EZAG GalliaPharm, 2 × IRE Galli Eo, n=3, T0) of the same molecule?
Its value is “C (C = conforms to specifications)”.

And the “Radiochemical Purity … (%)” value (15 mg ascorbic acid, 10.0-18.4 mCi, 0.95-1.77 mCi/mL, 1 × EZAG GalliaPharm, 2 × IRE Galli Eo, n=3, T1 (1 h))?
The value was “C (C = conforms to specifications)”.

What about the “Radiochemical Purity … (%)” value (15 mg ascorbic acid, 23.7-47.6 mCi, 2.26-4.53 mCi/mL, 1 × EZAG GalliaPharm, 2 × IRE Galli Eo, average of 3, T0) of the same molecule?
Its value is 100%.

And the “Radiochemical Purity … (%)” value (15 mg ascorbic acid, 23.7-47.6 mCi, 2.26-4.53 mCi/mL, 1 × EZAG GalliaPharm, 2 × IRE Galli Eo, average of 3, T4 (4 h))?
The value was 100%.

And the “Radiochemical Purity … (%)” value (15 mg ascorbic acid, 23.7-47.6 mCi, 2.26-4.53 mCi/mL, 1 × EZAG GalliaPharm, 2 × IRE Galli Eo, n=3, T0)?
Its value is “C (C = conforms to specifications)”.

And the “Radiochemical Purity … (%)” value (15 mg ascorbic acid, 23.7-47.6 mCi, 2.26-4.53 mCi/mL, 1 × EZAG GalliaPharm, 2 × IRE Galli Eo, n=3, T4 (4 h))?
Its value is “C (C = conforms to specifications)”.

And the “Radiochemical Purity … (%)” value (20 mg ascorbic acid, 514-544 mCi, 48.3-51.9 mCi/mL, GE Solid Target, average of 2, T0)?
The value was 100%.

And the “Radiochemical Purity … (%)” value (20 mg ascorbic acid, 514-544 mCi, 48.3-51.9 mCi/mL, GE Solid Target, average of 2, T6 (6 h))?
The value was 100%.

What about the “Radiochemical Purity … (%)” value (20 mg ascorbic acid, 514-544 mCi, 48.3-51.9 mCi/mL, GE Solid Target, n=2, T0) of the same molecule?
The value was “C (C = conforms to specifications)”.

And the “Radiochemical Purity … (%)” value (20 mg ascorbic acid, 514-544 mCi, 48.3-51.9 mCi/mL, GE Solid Target, n=2, T6 (6 h))?
The value was “C (C = conforms to specifications)”.

What about the “Radiochemical Purity … (%)” value (25 mg ascorbic acid, 19.5-20.0 mCi, 1.85-1.90 mCi/mL, EZAG GalliaPharm, average of 2, T0) of the same molecule?
Its value is 100%.

And the “Radiochemical Purity … (%)” value (25 mg ascorbic acid, 19.5-20.0 mCi, 1.85-1.90 mCi/mL, EZAG GalliaPharm, average of 2, T1 (1 h))?
Its value is 100%.

And the “Radiochemical Purity … (%)” value (25 mg ascorbic acid, 19.5-20.0 mCi, 1.85-1.90 mCi/mL, EZAG GalliaPharm, n=2, T0)?
Its value is “C (C = all results conform to specifications)”.

And the “Radiochemical Purity … (%)” value (25 mg ascorbic acid, 19.5-20.0 mCi, 1.85-1.90 mCi/mL, EZAG GalliaPharm, n=2, T1 (1 h))?
The value was “C (C = all results conform to specifications)”.

And the “Radiochemical Purity … (%)” value (25 mg ascorbic acid, 23.3-24 mCi, 2.22-2.28 mCi/mL, IRE Galli Eo, average of 2, T0)?
The value was 100%.

What about the “Radiochemical Purity … (%)” value (25 mg ascorbic acid, 23.3-24 mCi, 2.22-2.28 mCi/mL, IRE Galli Eo, average of 2, T4 (4 h)) of the same molecule?
The value was 100%.

What about the “Radiochemical Purity … (%)” value (25 mg ascorbic acid, 23.3-24 mCi, 2.22-2.28 mCi/mL, IRE Galli Eo, n=2, T0) of the same molecule?
The value was “C (C = all results conform to specifications)”.

And the “Radiochemical Purity … (%)” value (25 mg ascorbic acid, 23.3-24 mCi, 2.22-2.28 mCi/mL, IRE Galli Eo, n=2, T4 (4 h))?
Its value is “C (C = all results conform to specifications)”.

And the “Radiochemical Purity … (%)” value (25 mg ascorbic acid, 46.0-46.1 mCi, 4.38-4.39 mCi/mL, EZAG GalliaPharm, average of 2, T0)?
The value was 100%.

And the “Radiochemical Purity … (%)” value (25 mg ascorbic acid, 46.0-46.1 mCi, 4.38-4.39 mCi/mL, EZAG GalliaPharm, average of 2, T4 (4 h))?
Its value is 100%.

What about the “Radiochemical Purity … (%)” value (25 mg ascorbic acid, 46.0-46.1 mCi, 4.38-4.39 mCi/mL, EZAG GalliaPharm, n=2, T0) of the same molecule?
The value was “C (C = all results conform to specifications)”.
